Patent US9206219B2, “17-hydroxy-17-pentafluorethyl-estra-4,9(10)-dien-11-aryl derivatives, methods for the production thereof and the use thereof for treating diseases” (Bayer Intellectual Property GmbH, priority 2009, dated 2015)

Experiments:
[1] = target: T1, human progesterone receptor A (Homo sapiens, UniProt P06401); assay: Progesterone receptor-antagonistic action in stably transfected SK-N-MC cells, MMTV-LUC reporter (PR-A); assay type: cell-based; settings: antagonistic potency vs 0.1 nmol/l promegestone, 24 hours
T1 construct: expressed in transfected cells; host or cells: SK-N-MC human neuroblastoma cells, stably transfected with pRChPR-A-neo and pMMTV-LUC
T1 sequence (P06401 1-769 isoform P06401-2): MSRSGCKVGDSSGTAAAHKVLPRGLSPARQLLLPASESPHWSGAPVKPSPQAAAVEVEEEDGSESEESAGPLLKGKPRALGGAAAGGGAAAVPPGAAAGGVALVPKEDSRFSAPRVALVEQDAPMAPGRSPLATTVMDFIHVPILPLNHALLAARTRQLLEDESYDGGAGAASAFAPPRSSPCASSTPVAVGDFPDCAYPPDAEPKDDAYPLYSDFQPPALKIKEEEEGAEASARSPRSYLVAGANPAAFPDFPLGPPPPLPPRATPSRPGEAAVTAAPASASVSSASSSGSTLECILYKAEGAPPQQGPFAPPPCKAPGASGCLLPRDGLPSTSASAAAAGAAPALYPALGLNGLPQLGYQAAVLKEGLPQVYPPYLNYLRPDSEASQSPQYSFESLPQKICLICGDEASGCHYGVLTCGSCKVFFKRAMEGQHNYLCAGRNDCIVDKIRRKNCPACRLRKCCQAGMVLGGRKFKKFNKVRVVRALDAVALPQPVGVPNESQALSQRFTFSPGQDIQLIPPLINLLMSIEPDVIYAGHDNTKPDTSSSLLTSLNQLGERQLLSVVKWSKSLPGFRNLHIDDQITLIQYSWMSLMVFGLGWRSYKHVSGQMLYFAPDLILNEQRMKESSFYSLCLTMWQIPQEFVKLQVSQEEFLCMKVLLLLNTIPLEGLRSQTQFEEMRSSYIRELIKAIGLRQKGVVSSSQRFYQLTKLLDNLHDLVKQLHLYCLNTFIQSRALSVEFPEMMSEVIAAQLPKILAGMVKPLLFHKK
Description: (§1) Progesterone Receptor-Antagonistic Action in Stable Transfectants of Human Neuroblastoma Cells (SK-N-MC Cells) with the Human Progesterone A or Progesterone B Receptor and an MN-LUC Reporter Construct
(§2) SK-N-MC cells (human neuroblastoma cells) which have been stably transfected with plasmids expressing the human progesterone receptor B (pRChPR-B-neo) or the human progesterone receptor A (pRChPR-A-neo) and a reporter construct (pMMTV-LUC) were incubated for 24 hours either in the absence (negative control) or in the presence of ascending amounts of the particular test compound (0.01 nmol/l, 0.1 nmol/l, 1 nmol/l, 10 nmol/l, 100 nmol/l and […]), in order to determine the agonistic efficacy. As a positive control of the reporter gene induction, the cells were treated with the synthetic gestagen promegestone (0.01 nmol/l, 0.1 nmol/l, 1 nmol/l, 10 nmol/l, 100 nmol/l and […]). To determine the antagonistic activity, the cells were treated with 0.1 nmol/l promegestone and additionally with ascending amounts of the particular test compound (0.01 nmol/l, 0.1 nmol/l, 1 nmol/l, 10 nmol/l, 100 nmol/l and […]). The activity of the reporter gene LUC (LUC=luciferase) was determined in the cell lysates and measured as RLU (relative light units). All measurements are reported as % efficacy and as EC50 and IC50 concentrations.

[2] = target: T2, human progesterone receptor B (Homo sapiens, UniProt P06401); assay: Progesterone receptor-antagonistic action in stably transfected SK-N-MC cells, MMTV-LUC reporter (PR-B); assay type: cell-based; settings: antagonistic potency vs 0.1 nmol/l promegestone, 24 hours
T2 construct: expressed in transfected cells; host or cells: SK-N-MC human neuroblastoma cells, stably transfected with pRChPR-B-neo and pMMTV-LUC
T2 sequence (P06401 1-933): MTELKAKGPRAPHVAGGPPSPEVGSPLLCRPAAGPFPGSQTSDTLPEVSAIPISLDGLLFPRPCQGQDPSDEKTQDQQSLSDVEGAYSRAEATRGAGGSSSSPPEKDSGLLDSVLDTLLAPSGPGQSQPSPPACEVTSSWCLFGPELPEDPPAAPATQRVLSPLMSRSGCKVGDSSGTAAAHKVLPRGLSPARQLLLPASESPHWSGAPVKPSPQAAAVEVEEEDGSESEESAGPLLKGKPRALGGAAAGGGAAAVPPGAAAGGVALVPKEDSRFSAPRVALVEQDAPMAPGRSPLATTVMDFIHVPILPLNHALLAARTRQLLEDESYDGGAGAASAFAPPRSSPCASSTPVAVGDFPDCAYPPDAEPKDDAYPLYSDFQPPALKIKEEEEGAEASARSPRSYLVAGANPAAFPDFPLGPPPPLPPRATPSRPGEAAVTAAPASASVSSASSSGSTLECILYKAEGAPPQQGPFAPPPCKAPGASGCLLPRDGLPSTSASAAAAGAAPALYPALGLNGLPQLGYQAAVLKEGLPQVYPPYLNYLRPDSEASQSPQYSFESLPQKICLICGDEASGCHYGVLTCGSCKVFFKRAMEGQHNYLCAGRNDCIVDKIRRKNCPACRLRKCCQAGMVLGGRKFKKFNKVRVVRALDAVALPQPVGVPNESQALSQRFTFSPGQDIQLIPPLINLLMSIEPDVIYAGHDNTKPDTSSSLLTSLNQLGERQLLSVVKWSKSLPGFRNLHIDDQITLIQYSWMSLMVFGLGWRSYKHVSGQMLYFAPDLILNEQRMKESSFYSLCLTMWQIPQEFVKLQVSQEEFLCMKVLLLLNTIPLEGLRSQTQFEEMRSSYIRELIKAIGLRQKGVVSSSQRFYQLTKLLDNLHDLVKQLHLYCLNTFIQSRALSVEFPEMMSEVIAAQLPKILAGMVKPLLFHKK
Description: as §1, §2

## C[C@]12C[C@H](c3ccc(COC(=O)Nc4ccccc4)cc3)C3=C4CCC(=O)C=C4CC[C@H]3[C@@H]1CC[C@@]2(O)C(F)(F)C(F)(F)F [Example 46, phenylcarbamic acid 4-((8S,11R,13S,14S,17S)-17-hydroxy-13-methyl-3-oxo-17-pentafluoroethyl-2,3,6,7,8,11,12,13,14,15,16,17-dodecahydro-1H-cyclopenta[a]phenanthren-11-yl)benzyl ester]
[1]
  IC50: 0.01 nM
[2]
  IC50: 0.01 nM

## C[C@]12C[C@H](c3ccc(COC(=O)Nc4ccc(N5CCCCC5)cc4)cc3)C3=C4CCC(=O)C=C4CC[C@H]3[C@@H]1CC[C@@]2(O)C(F)(F)C(F)(F)F [Example 45, (4-piperidin-1-ylphenyl)carbamic acid 4-((8S,11R,13S,14S,17S)-17-hydroxy-13-methyl-3-oxo-17-pentafluoroethyl-2,3,6,7,8,11,12,13,14,15,16,17-dodecahydro-1H-cyclopenta[a]phenanthren-11-yl)benzyl ester]
[1]
  IC50: 0.02 nM
[2]
  IC50: 0.09 nM

## CC(C)NC(=O)OCc1ccc([C@H]2C[C@@]3(C)[C@@H](CC[C@@]3(O)C(F)(F)C(F)(F)F)[C@@H]3CCC4=CC(=O)CCC4=C32)cc1 [Example 42, isopropylcarbamic acid 4-((8S,11R,13S,14S,17S)-17-hydroxy-13-methyl-3-oxo-17-pentafluoroethyl-2,3,6,7,8,11,12,13,14,15,16,17-dodecahydro-1H-cyclopenta[a]phenanthren-11-yl)benzyl ester]
[1]
  IC50: 0.1 nM
[2]
  IC50: 0.2 nM

## C[C@]12C[C@H](c3ccc(CNC(=O)NCCC(=O)O)cc3)C3=C4CCC(=O)C=C4CC[C@H]3[C@@H]1CC[C@@]2(O)C(F)(F)C(F)(F)F [Example 27, 3-{3-[4-((8S,11R,13S,14S,17S)-17-hydroxy-13-methyl-3-oxo-17-pentafluoroethyl-2,3,6,7,8,11,12,13,14,15,16,17-dodecahydro-1H-cyclopenta[a]phenanthren-11-yl)benzyl]ureido}propionic acid]
[1]
  IC50: 43 nM
[2]
  IC50: 29 nM

## C[C@]12C[C@H](c3cccc(CCO)c3)C3=C4CCC(=O)C=C4CC[C@H]3[C@@H]1CC[C@@]2(O)C(F)(F)C(F)(F)F [Example 14, (8S,11R,13S,14S,17S)-17-hydroxy-11-[3-(2-hydroxyethyl)phenyl]-13-methyl-17-pentafluoroethyl-1,2,6,7,8,11,12,13,14,15,16,17-dodecahydrocyclopenta[a]phenanthren-3-one]
[1]
  IC50: 1 nM
[2]
  IC50: 1 nM

## CCOC(=O)CCNC(=O)OCc1ccc([C@H]2C[C@@]3(C)[C@@H](CC[C@@]3(O)C(F)(F)C(F)(F)F)[C@@H]3CCC4=CC(=O)CCC4=C32)cc1 [Example 57, 3-[4-((8S,11R,13S,14S,17S)-17-hydroxy-13-methyl-3-oxo-17-pentafluoroethyl-2,3,6,7,8,11,12,13,14,15,16,17-dodecahydro-1H-cyclopenta[a]phenanthren-11-yl)benzyloxycarbonylamino]propionic acid ethyl ester]
[1]
  IC50: 0.1 nM
[2]
  IC50: 0.1 nM

## CC(C)NC(=O)NCc1ccc([C@H]2C[C@@]3(C)[C@@H](CC[C@@]3(O)C(F)(F)C(F)(F)F)[C@@H]3CCC4=CC(=O)CCC4=C32)cc1 [Example 19, 1-isopropyl-3-[4-((8S,11R,13S,14S,17S)-17-hydroxy-13-methyl-3-oxo-17-pentafluoroethyl-2,3,6,7,8,11,12,13,14,15,16,17-dodecahydro-1H-cyclopenta[a]phenanthren-11-yl)benzyl]urea]
[1]
  IC50: 0.6 nM
[2]
  IC50: 0.7 nM

## CC(C)(C)c1ccc(NC(=O)NCc2ccc([C@H]3C[C@@]4(C)[C@@H](CC[C@@]4(O)C(F)(F)C(F)(F)F)[C@@H]4CCC5=CC(=O)CCC5=C43)cc2)cc1 [Example 35, 1-(4-tert-butylphenyl)-3-[4-((8S,11R,13S,14S,17S)-17-hydroxy-13-methyl-3-oxo-17-pentafluoroethyl-2,3,6,7,8,11,12,13,14,15,16,17-dodecahydro-1H-cyclopenta[a]phenanthren-11-yl)benzyl]urea]
[1]
  IC50: 0.3 nM
[2]
  IC50: 0.6 nM

## CC1(c2ccc([C@H]3C[C@@]4(C)[C@@H](CC[C@@]4(O)C(F)(F)C(F)(F)F)[C@@H]4CCC5=CC(=O)CCC5=C43)cc2)COC1 [Example 40, (8S,11R,13S,14S,17S)-17-hydroxy-13-methyl-11-[4-(3-methyloxetan-3-yl)phenyl]-17-pentafluoroethyl-1,2,6,7,8,11,12,13,14,15,16,17-dodecahydrocyclopenta[a]phenanthren-3-one]
[1]
  IC50: 0.01 nM
[2]
  IC50: 0.05 nM

## C[C@]12C[C@H](c3ccc([C@@H]4CC4CO)cc3)C3=C4CCC(=O)C=C4CCC3C1CC[C@@]2(O)C(F)(F)C(F)(F)F (single isomer, unassigned) [Example 6A]
[1]
  IC50: 0.1 nM
[2]
  IC50: 0.1 nM

## C[C@]12C[C@H](c3ccc(CNC(=O)Nc4ccc(F)cc4)cc3)C3=C4CCC(=O)C=C4CC[C@H]3[C@@H]1CC[C@@]2(O)C(F)(F)C(F)(F)F [Example 33, 1-(4-fluorophenyl)-3-[4-((8S,11R,13S,14S,17S)-17-hydroxy-13-methyl-3-oxo-17-pentafluoroethyl-2,3,6,7,8,11,12,13,14,15,16,17-dodecahydro-1H-cyclopenta[a]phenanthren-11-yl)benzyl]urea]
[1]
  IC50: 0.8 nM
[2]
  IC50: 0.8 nM

## C[C@]12C[C@H](c3ccc(COC(=O)NCc4ccccc4)cc3)C3=C4CCC(=O)C=C4CC[C@H]3[C@@H]1CC[C@@]2(O)C(F)(F)C(F)(F)F [Example 56, benzylcarbamic acid 4-((8S,11R,13S,14S,17S)-17-hydroxy-13-methyl-3-oxo-17-pentafluoroethyl-2,3,6,7,8,11,12,13,14,15,16,17-dodecahydro-1H-cyclopenta[a]phenanthren-11-yl)benzyl ester]
[1]
  IC50: 0.2 nM
[2]
  IC50: 0.3 nM

## CC(C)(C)NC(=O)NCc1ccc([C@H]2C[C@@]3(C)[C@@H](CC[C@@]3(O)C(F)(F)C(F)(F)F)[C@@H]3CCC4=CC(=O)CCC4=C32)cc1 [Example 20, 1-tert-butyl-3-[4-((8S,11R,13S,14S,17S)-17-hydroxy-13-methyl-3-oxo-17-pentafluoroethyl-2,3,6,7,8,11,12,13,14,15,16,17-dodecahydro-1H-cyclopenta[a]phenanthren-11-yl)benzyl]urea]
[1]
  IC50: 0.7 nM
[2]
  IC50: 1 nM
